Experimental data taken from patent US6867186B2, “Cell-permeable protein inhibitors of calpain” (New England Medical Center Hospital, priority 1997, dated 2005).
Where two headings read alike, the source gives them in different places.

Columns and labels:
platelets = test: cells; set-up: increase in P-selectin surface expression over unstimulated: dose or concentration left out as unconfirmed
Procedure: To determine whether S-TIPPEYIN could inhibit α-granule secretion in platelets, surface expression of P-selectin, which indicates α-granule secretion, was induced with the thrombin peptide SFLLR (SEQ ID NO:5) and analyzed by flow cytometry using an antibody against P-selectin. Blood from healthy volunteers was collected into sodium citrate (4% w/v) and centrifuged at 200×g for 10 minutes to prepare platelet-rich plasma (PRP), from which platelets were subsequently purified by gel filtration using a SEPHAROSE 2B column in PIPES buffer. Twenty μl of platelets (approximately 2×10^8 platelets/ml) were aliquoted into eppendorf tubes and one μl of S-TIPPEYIN, TIPPEYIN (lacking the signal peptide sequence), or S-TIPPEY-ala was added to achieve final concentrations of 6.25, 12.5, 25, 50, or 100 μM. The platelets were then incubated for 2 hours at 37° C. and subsequently exposed to either 1 μl PBS (unstimulated) or 1 μl of SFLLR (SEQ ID NO:5; stimulated) at the indicated concentration. After 30 seconds, a 7.5 μl aliquot was transferred to an eppendorf tube containing non-immune serum having antibodies that were conjugated to phycoerythrin. Following a 20 minute incubation at room temperature, the mixture was diluted with 1 ml of 2% paraformaldehyde and incubated at 4° C. for two hours. Antibody binding to platelet surface P-selectin was quantified using a FACSCAN flow cytometer (Becton Dickerson, San Jose, Calif.). Results were reported as the geometric mean of the relative fluorescence.
Platelets were pre-incubated with increasing concentrations of calpeptin, MDL, E64d, or DMSO (vehicle control) for ten minutes prior to stimulation with SFLLR.

[1] = test system: red blood cells isolated from sickle cell patients; test: Na2S2O5-induced sickling of sickle erythrocytes; type: cell-based, human
Procedure: To examine sickling, a wet preparation of red blood cells (as opposed to a dried smear) was made by placing blood under a coverslip on a glass slide. The slide was placed under a light microscope, and the number of cells displaying sickled morphology was counted. Na2S2O5 was used to increase the rate of sickling.
When EDTA-anticoagulated peripheral blood from a sickle cell patient was preincubated with calpastat for 10 minutes prior to exposure to sodium metabisulfite (Na2S2O5), there was a significant delay (about 30 minutes) in sickling.
In a second experiment, the effect of calpastat on recovery from sickling was measured. Blood from the same patient was incubated with Na2S2O5, for two hours in a microfuge tube. The supernatant plasma was then removed from the settled erythrocytes and the erythrocytes were diluted in four volumes of saline. The washed erythrocytes were then incubated in saline, and Wright-Giemsa stained smears were made 60 minutes following the washout of Na2S2O5.

U937 cells = test: Chemokine production of thapsigargin-stimulated U937 cells; type: cell-based; conditions: 5 nM calpastat
Procedure: peptides can inhibit chemokine production in vitro. The effect of […] on chemokine production was tested as follows. […] The chemokines (MIP-1α, MIP-1P and RANTES) in the supernatants of U937 cells were assayed using QuantikineTM kits and as described by R&D Systems (Minneapolis, Minn.). […] Thus, […] be used to reduce production of inflammatory cytokines and treat inflammatory disorders.

HIV-1 = test system: HIV-1
Procedure: (§1) U1 is a human promonocytic cell line that is chronically infected with HIV-1 and that constitutively expresses low levels of HIV-1. […] In the present experiment, 1×10^6 cells/ml were treated with various dosages of calpastat and incubated for one hour at 37° C. After incubation, various concentrations of Tpg were added to the calpastat-treated cells and aliquoted into a 24-well plate. To observe the stimulation of HIV-1 activity by Tpg, equivalent numbers of cells were treated with Tpg alone. The cells were then incubated at 37° C. for up to four days, and supernatants from the cell culture were collected each day to measure HIV-1 activity. The viability of cells treated with both Tpg and calpastat were determined each day by Trypan-blue exclusion test. The HIV-1 activity in the collected supernatants was determined by measuring the HIV-1 p24 core antigen protein by ELISA (Dupont Medical Products, Boston, Mass.) according to the manufacturer's instructions.
In another series of experiments, U1 cells, which are latently infected with HIV-1 provirus, were plated at 10^6 cells/well in 1 ml of medium and treated with varying concentrations of either calpastat (FIG. 7E) or calpeptin (benzyloxycarbonyl-leucyl-norleucinal) (FIG. 7F) for 45 minutes before addition of thapsigargin (4 nM final concentration). […] After 48 hours of stimulation, HIV-1 p24 antigen levels were determined in 200 μl of tissue culture supernatant, using a p24 ELISA (DuPont). All assays were performed on triplicate cultures.

U1 cells = test: U1 cell viability (Trypan-blue exclusion); type: cell-based, human; conditions: 5 μM calpastat, 96 hr; from 40% without
Procedure: as §1
In another series of experiments, U1 cells, which are latently infected with HIV-1 provirus, were plated at 10^6 cells/well in 1 ml of medium and treated with varying concentrations of either calpastat (FIG. 7E) or calpeptin (benzyloxycarbonyl-leucyl-norleucinal) (FIG. 7F) for 45 minutes before addition of thapsigargin (4 nM final concentration). The viability of U1 monocytes was 90% at 48 hours of thapsigargin (4 nM) treatment, in the presence or absence of calpain inhibitors. After 48 hours of stimulation, HIV-1 p24 antigen levels were determined in 200 μl of tissue culture supernatant, using a p24 ELISA (DuPont). All assays were performed on triplicate cultures. Mean values and standard deviations are shown for each concentration of inhibitor (FIGS. 7E-7F).

[2] = sixty minutes following Na2S2O5 washout

Substance | effect on SFLLR-induced P-selectin surface expression (platelets; pre-incubation, SFLLR stimulation) | final percentage of sickled cells ([1]; Na2S2O5) | delay in sickling ([1]; preincubated 10 minutes prior to Na2S2O5) | percentage of discocytes compared to S-TIPPEY-ala-treated cells [1, 2] | percentage of sickled cells compared to S-TIPPEY-ala-treated cells [1, 2] | reduction of production of chemokines (MIP-1α, MIP-1P and RANTES) (U937 cells) | IC50 (platelets) | P-selectin surface expression induced by ionophore A23187 (platelets; A23187) | maximal inhibition of P-selectin surface expression (platelets; FIG. 3, SFLLR) | increase in P-selectin surface expression over unstimulated (platelets; SFLLR alone approximately 10-fold) | IC50 (platelets; read-out: half-maximal inhibition of P-selectin surface expression, FIG. 3, SFLLR) | decrease of mean fold viral production (HIV-1; 5 μM, 24 hours of Tpg stimulation) | decrease of mean fold viral production (HIV-1; 5 μM, 46 hours of Tpg stimulation) | decrease of mean fold viral production (HIV-1; 5 μM, 72 hours of Tpg stimulation) | decrease of mean fold viral production (HIV-1; 5 μM, 96 hours of Tpg stimulation) | inhibition of HIV-1 release from infected cells (HIV-1; 5 μM, overall) | IC50 (HIV-1; read-out: IC50, inhibition of HIV-1 replication, FIG. 7E, U1 cells, thapsigargin 4 nM, 48 hours) | viability of U1 cells in 4 nM Tpg (U1 cells)
AAVALLPAVLLALLAPEKLAERADAAAPEAAELLEKKTGV [Calpastat-ala] | no effect | – | – | – | – | – | – | – | – | – | – | – | – | – | – | – | – | –
H-AAVALLPAVLLALLAPEKLGERDDTIPPEYRELLEKKTGV-OH [Calpastat] | – | no detectable difference | about 30 minutes | two-fold greater | two-fold lower | about one third | 30 µM | inhibited | 40 to 60 µM | 5 fold | 15 to 20 µM | 47% | 44% | 55% | 61% | about 50% | 0.05 µM | 90%
